Laboratory results published in US20090130121A1, “Synthetic Peptide Copolymers for Treatment and Prevention of Cardiovascular Disorders” (Yeda Research and Development Co., Ltd., priority 2005, published 2009).

Legend:
apoE-/- mice [1] = experiment: Atherosclerotic lesion progression in the aortic sinus of apoE-/- mice; assay type: in vivo; conditions: daily 8 weeks
Experimental: (§1) apoE-/- (backcrossed 10 times to C57BL/6J) mice were obtained from the Jackson Laboratory and were maintained under specific pathogen-free conditions and fed a normal chow diet. All experimental procedures were performed with approval from the Animal Care Committee of the Weizmann Institute of Science.
Eight-month-old apoE-/- mice (101 mice) were divided into 7 groups, […] (except day 0 group; n=11). Control group-time 0 (group 1) was sacrificed before treatment in order to measure the atherosclerotic lesion area prior to the treatments. Treatments were performed daily for a period of 8 weeks. Control group (group II) was orally administrated with PBS (0.2 ml). Control group III was injected subcutaneously (SC) with PBS (0.2 ml). […] Group VI was injected subcutaneously (SC) with GA in PBS (0.5 mg/0.2 ml). Group VII was injected subcutaneously (SC) with GA in PBS (2.0 mg/0.2 ml).
Histological evaluations of aortic fatty streak formation were performed according to the method of Paigen et al. with some modifications (Paigen et al., 1987. Atherosclerosis. 68:231-240). Briefly, the apical two thirds of the myocardium were removed and the basal part was snap-frozen in OCT (Sakura Tissue-Tek) using Isopentan cooled in liquid nitrogen. The frozen tissue blocks were placed on a cryostat, and 10-μm serial slices of the ascending aorta were collected on charge-coated Superfrost glass slides until it became possible to locate the most cranial portion of the aortic sinus by examining unstained slices. Once this slice was identified, 40 slices covering 400 μm of the ascending aorta were collected. Every second slice of the 40 collected was stained with oil red O (Riedel de Haen), counterstained with hematoxylin (Merck) stains and used for further evaluation. The fatty streak area stained with oil red O was objectively determined using a computer microscopy planimetry system (Nikon Micro & Macro system eclipse E800; Nikon digital camera DXM 1200 CCD; Nikon ×20/0.75 lens magnification) and Image-Pro Plus image analyses software for Windows XP. The total stained area (calculated for all 20 slices of each animal) was averaged per section for each animal. Thereafter, the area per slice was averaged for each group of animals and presented in μm^2.
Student's t-test was used for the comparison of the lesion progression in the aortic sinus of the treated and control groups of the apoE-/- mice.

[2] = tested on: C57BL/J6 mice maintained on an atherogenic diet; experiment: Atherosclerotic fatty streak area (oil red O) in aorta of C57BL/J6 mice on atherogenic diet; assay type: in vivo
Excerpt: Fourteen-month-old male C57BL/J6 mice (Harlan) with an average body weight of 19 g were randomly divided into three groups (five animals in each group). The groups entered a two-week acclimatization period. Groups A, which served as positive control and B, which served as the treated group, received a high fat atherogenic diet containing 1.25 % cholesterol, 0.5% sodium cholate and 15% fat (Harlan Laboratories, Teklad Premier Laboratory Diets, Madison, Wis., USA TD 88051). Group C served as negative control and was maintained on a normal mouse chow (Altromin, Standard Diet). The chow was supplied considering that the average intake of food for each animal is about 5 g/day (Walker et al., 1999, Arterioscler Thromb Vasc Biol. 19, 2673-2679). Replenishment of food and autoclaved water was performed every other day. All the animals were weighed weekly during the study. The mice were maintained on a 12-hour light/dark cycle in ventilated cages and temperature-controlled environment, in accordance with the standard animal care requirements of the Weizmann Institute of Science. […]
Histological evaluations of aortic fatty streak formation were performed according to the method of Paigen et al. with some modifications (Paigen et al., 1987. Atherosclerosis. 68:231-240). […] The fatty streak area stained with oil red O was objectively determined using a computer microscopy planimetry system (Nikon Micro & Macro system eclipse E800; Nikon digital camera DXM 1200 CCD; Nikon ×20/0.75 lens magnification) and Image-Pro Plus image analyses software for Windows XP. The total stained area (calculated for all 20 slices of each animal) was averaged per section for each animal. […]
(§2) ANOVA single factor test was used for the comparison of the body weights of the C57BL/J6 mice. Since no fatty streaks were detected in the negative control group of the C57BL/J6 mice (Group C), only two groups (A and B) participated in the statistical analysis of the results obtained in the quantization of aortic fatty streak area. The C57BL/J6 data were analyzed using Student's t-test: two samples assuming unequal variance. […]

[3] = several clinical trials; mostly mild reactions at the injection site; cited from earlier work
[4] = Survival and body weight of C57BL/J6 mice on atherogenic diet, daily SC treatment; assay type: in vivo; conditions: Group B, GA 0.5 mg/0.2 ml SC daily
Excerpt: Fourteen-month-old male C57BL/J6 mice (Harlan) with an average body weight of 19 g were randomly divided into three groups (five animals in each group). The groups entered a two-week acclimatization period. Groups A, which served as positive control and B, which served as the treated group, received a high fat atherogenic diet containing 1.25 % cholesterol, 0.5% sodium cholate and 15% fat (Harlan Laboratories, Teklad Premier Laboratory Diets, Madison, Wis., USA TD 88051). Group C served as negative control and was maintained on a normal mouse chow (Altromin, Standard Diet). The chow was supplied considering that the average intake of food for each animal is about 5 g/day (Walker et al., 1999, Arterioscler Thromb Vasc Biol. 19, 2673-2679). Replenishment of food and autoclaved water was performed every other day. All the animals were weighed weekly during the study. The mice were maintained on a 12-hour light/dark cycle in ventilated cages and temperature-controlled environment, in accordance with the standard animal care requirements of the Weizmann Institute of Science.
Following acclimatization, the animals in groups A (positive control) and C (negative control) received 0.2 ml of PBS injected daily subcutaneously (SC). The animals in group B (treated) received SC daily injections of glatiramer acetate (GA) (COPAXONE®, Teva Pharmaceutical Industries Ltd) in PBS (0.5 mg/0.2 ml). After 8 weeks all the mice were bled retro-orbitally and humanely sacrificed by cervical dislocation. The hearts and ascending aorta were removed from the animals, rinsed with Dulbecco's PBS (Life Technologies) and used for the evaluation of fatty streak formation.
as §2

[5] = Body weight gain and plasma lipids in apoE-/- mice; assay type: in vivo; conditions: high and low doses, subcutaneously or orally, daily 8 weeks
Experimental: as §1
(§3) Eight-month-old apoE-/- mice (101 mice) were divided into 7 groups, […] (except day 0 group; n=11). Control group-time 0 (group 1) was sacrificed before treatment in order to measure the atherosclerotic lesion area prior to the treatments. Treatments were performed daily for a period of 8 weeks. Control group (group II) was orally administrated with PBS (0.2 ml). Control group III was injected subcutaneously (SC) with PBS (0.2 ml). Group IV was orally treated with GA in PBS (5.0 μg/0.2 ml); Groups V was orally treated with GA in PBS (250 μg/0.2 ml). Group VI was injected subcutaneously (SC) with GA in PBS (0.5 mg/0.2 ml). Group VII was injected subcutaneously (SC) with GA in PBS (2.0 mg/0.2 ml).
The whole blood samples were centrifuged for plasma separation and the plasma samples of each group were pooled. Total Plasma cholesterol as well as low and high density lipoprotein cholesterol (LDL and HDL, respectively) concentrations were measured in each group using Konelab 30i autoanalyser (Kone Instruments, Espoo, Finland).

apoE-/- mice [6] = experiment: Aortic atherosclerotic lesion area in apoE-/- mice; assay type: in vivo
Experimental: as §1, §3
Aortic atherosclerotic areas were measured in control and treated mice of the following groups: I (time 0); III (S.C. PBS); V (Oral GA, 250 μg); and VII (S.C. GA, 2.0 mg).

[7] = tested on: apolipoprotein E-deficient mice; conditions: 12 week treatment; cited from earlier work

Row | Compound | inhibition of the progression of lesion area in the aortic sinus with respect to control (apoE-/- mice [1]; high dose S.C. (2.0 mg)) [%] | inhibition of the progression of lesion area in the aortic sinus with respect to control (apoE-/- mice [1]; high dose orally (250 μg)) [%] | effect on lesion progression in the aortic sinus (apoE-/- mice [1]; low dose S.C. (500 μg)) | effect on lesion progression in the aortic sinus (apoE-/- mice [1]; low dose orally (50 μg)) | animals with no fatty streaks in the analysed aortic section (20 slices) ([2]; Group B, GA 0.5 mg SC daily 8 weeks, animals that reached the end of the study) | reduction in the fatty streak area compared to the untreated mice ([2]; calculated for all four mice in Group B) [fold] | average area stained with oil red O relative to positive control Group A ([2]; the two GA-treated mice that had fatty streaks, p=0.014) [%] | tolerability in clinical trials [3] | average body weight ten weeks following the initiation of the study ([4]; atherogenic diet) [g] | weight gained during the 10 weeks of the study ([4]; atherogenic diet) [g] | animals that reached the end of the study ([4]; one animal found dead five weeks into the study) | effect on body weight gain [5] | change in aortic lesion area compared to time 0 (apoE-/- mice [6]; Oral GA 250 μg, group V, P<0.05) | inhibition of aortic lesion area progression compared to control group III (apoE-/- mice [6]; high dose 2.0 mg S.C., group VII, t-test P=0.009) [%] | decrease in the size of atherosclerotic lesions [7] [%]
1 | glatiramer acetate [GA] | 44.4 | 37.7 | did not effect | did not effect | two out of four | 4 | 40 | well tolerated with only minor side reactions | 24.20 ± 0.94 | 5.24 ± 1.40 | Four out of five | did not affect | significance increase | 52 | 
2 | CC(=O)CCCCn1c(=O)c2c(ncn2C)n(C)c1=O [PTX, pentoxifylline] |  |  |  |  |  |  |  |  |  |  |  |  |  |  | 60
